How the values were obtained:
[1] = target: T1, human mAChRM1 (Homo sapiens, UniProt P11229); test: mAChR M1 cell-based functional assay (calcium mobilization), positive allosteric modulator activity: increase in the EC20 acetylcholine response; settings: for Emax: PAM mode; for EC50: increase in the EC20 acetylcholine response, read-out: PAM Activity Human M1 EC50
T1 construct: host or cells: CHO-K1
T1 sequence (P11229 1-460): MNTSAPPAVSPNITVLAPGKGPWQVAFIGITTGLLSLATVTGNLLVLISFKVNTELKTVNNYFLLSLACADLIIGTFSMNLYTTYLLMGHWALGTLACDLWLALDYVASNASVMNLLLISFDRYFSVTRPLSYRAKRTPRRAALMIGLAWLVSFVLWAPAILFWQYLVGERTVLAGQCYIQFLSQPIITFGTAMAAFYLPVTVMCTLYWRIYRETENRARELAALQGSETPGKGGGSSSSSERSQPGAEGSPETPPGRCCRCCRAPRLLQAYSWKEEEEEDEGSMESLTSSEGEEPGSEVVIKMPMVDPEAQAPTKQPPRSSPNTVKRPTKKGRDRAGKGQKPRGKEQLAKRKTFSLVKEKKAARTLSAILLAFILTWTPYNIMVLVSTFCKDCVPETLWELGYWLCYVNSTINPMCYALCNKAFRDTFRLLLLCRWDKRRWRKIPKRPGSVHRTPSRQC
Summary of the method: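 Potentiation is scored as the rise in an EC20 acetylcholine-evoked calcium signal across 11-point (1:3) compound series, fitted with a four-parameter logistic equation to give EC50 and Emax. Read-out is Fluo-4 fluorescence ratio in hM1-transfected CHO-K1 cells, measured kinetically on FDSS.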

[2] = target: T1, human mAChRM1; test: mAChR M1 cell-based functional assay (calcium mobilization), agonist activity upon compound addition, Emax relative to acetylcholine maximum; settings: for EC50 / Agonist Activity Human M1 EC50: calcium mobilization upon compound addition; for Emax: relative to the maximum for acetylcholine
Summary of the method: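 Emax is given as a percentage of the maximal acetylcholine response, from four-parameter curves of compound-evoked calcium mobilization. Human M1-transfected CHO-K1 cells carried Fluo-4 dye, and compound (11 concentrations, 1:3 steps) was applied at 4 s of a 300 s kinetic fluorescence recording.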

| Compound | Emax [1] | EC50 [1] | EC50 [2] | Emax [2] | Agonist Activity Human M1 EC50 [2] |
| --- | --- | --- | --- | --- | --- |
| Cn1cc2c(-c3cc(F)c(CN4Cc5ncccc5C4=O)c(C4CCCC4)c3)ccc(C(C)(C)O)c2n1 [Compound 66, 6-(2-cyclopentyl-6-fluoro-4-(7-(2-hydroxypropan-2-yl)-2-methyl-2H-indazol-4-yl)benzyl)-6,7-dihydro-5H-pyrrolo[3,4-b]pyridin-5-one] | 62% | 1910 nM | – | – | inactive |
| Cn1nc(C(C)(C)O)cc1-c1cc(F)c(CN2Cc3ncccc3C2=O)c(C2CC2)c1 [Compound 68, 6-(2-cyclopropyl-6-fluoro-4-(3-(2-hydroxypropan-2-yl)-1-methyl-1H-pyrazol-5-yl)benzyl)-6,7-dihydro-5H-pyrrolo[3,4-b]pyridin-5-one] | 49% | ≥ 10000 nM | – | – | inactive |
| Cc1cc(-c2cc(C(C)(C)O)nn2C)ccc1CN1Cc2ncccc2C1=O [Compound 69, 6-(4-(3-(2-hydroxypropan-2-yl)-1-methyl-1H-pyrazol-5-yl)-2-methylbenzyl)-6,7-dihydro-5H-pyrrolo[3,4-b]pyridin-5-one] | 36% | ≥ 10000 nM | – | – | inactive |
| CCC(O)(CC)c1ccc(-c2ccc(CN3Cc4ncccc4C3=O)c(F)c2)c2cn(C)nc12 [Compound 70, 6-(2-fluoro-4-(7-(3-hydroxypentan-3-yl)-2-methyl-2H-indazol-4-yl)benzyl)-6,7-dihydro-5H-pyrrolo[3,4-b]pyridin-5-one] | 78% | 2210 nM | – | – | inactive |
| CC(C)(O)c1ccc(-c2cc(F)c(CN3Cc4ncccc4C3=O)c(F)c2)c2ccccc12 [Compound 71, 6-(2,6-difluoro-4-(4-(2-hydroxypropan-2-yl)naphthalen-1-yl)benzyl)-6,7-dihydro-5H-pyrrolo[3,4-b]pyridin-5-one] | 64% | ≥ 10000 nM | – | – | inactive |
| Cc1cc(-c2ccc(C(C)(C)O)c3ccccc23)cc(F)c1CN1Cc2ncccc2C1=O [Compound 72, 6-(2-fluoro-4-(4-(2-hydroxypropan-2-yl)naphthalen-1-yl)-6-methylbenzyl)-6,7-dihydro-5H-pyrrolo[3,4-b]pyridin-5-one] | 60% | 6960 nM | – | – | inactive |
| CC(C)(O)c1ccc(-c2ccc(CN3Cc4ncccc4C3=O)c(F)c2)c2ccccc12 [Compound 73, 6-(2-fluoro-4-(4-(2-hydroxypropan-2-yl)naphthalen-1-yl)benzyl)-6,7-dihydro-5H-pyrrolo[3,4-b]pyridin-5-one] | 58% | ≥ 10000 nM | – | – | inactive |
| Cc1cc(-c2cc(C(C)(C)O)cc3nn[nH]c23)cc(F)c1CN1Cc2ncccc2C1=O [Compound 74, 6-(2-fluoro-4-(5-(2-hydroxypropan-2-yl)-1H-benzo[d][1,2,3]triazol-7-yl)-6-methylbenzyl)-6,7-dihydro-5H-pyrrolo[3,4-b]pyridin-5-one] | 52% | ≥ 10000 nM | – | – | inactive |
| CC(C)(O)c1cc(-c2ccc(CN3Cc4ncccc4C3=O)c(F)c2)c2[nH]nnc2c1 [Compound 75, 6-(2-fluoro-4-(5-(2-hydroxypropan-2-yl)-1H-benzo[d][1,2,3]triazol-7-yl)benzyl)-6,7-dihydro-5H-pyrrolo[3,4-b]pyridin-5-one] | 45% | ≥ 10000 nM | – | – | inactive |
| CN(C)c1cc(-c2ccc(C(C)(C)O)c3nn(C)cc23)cc(F)c1CN1Cc2ncccc2C1=O [Compound 77, 6-(2-(dimethylamino)-6-fluoro-4-(7-(2-hydroxypropan-2-yl)-2-methyl-2H-indazol-4-yl)benzyl)-6,7-dihydro-5H-pyrrolo[3,4-b]pyridin-5-one] | 73% | 3870 nM | – | – | inactive |
| Cn1cc2c(-c3cc(F)c(CN4Cc5ncccc5C4=O)c(N4CCC4)c3)ccc(C(C)(C)O)c2n1 [Compound 78, 6-(2-(azetidin-1-yl)-6-fluoro-4-(7-(2-hydroxypropan-2-yl)-2-methyl-2H-indazol-4-yl)benzyl)-6,7-dihydro-5H-pyrrolo[3,4-b]pyridin-5-one] | 81% | 583 nM | – | – | inactive |
| Cn1ncc2c(-c3cc(F)c(CN4Cc5ncccc5C4=O)c(F)c3)ccc(C(C)(C)O)c21 [Compound 79, 6-(2,6-difluoro-4-(7-(2-hydroxypropan-2-yl)-1-methyl-1H-indazol-4-yl)benzyl)-6,7-dihydro-5H-pyrrolo[3,4-b]pyridin-5-one] | 76% | 1210 nM | – | – | inactive |
| CCC(O)(c1ccc(-c2cc(F)c(CN3Cc4ncccc4C3=O)c(F)c2)c2cn(C)nc12)C(F)(F)F (stereo not drawn) [Compound 81, 6-(2,6-difluoro-4-(2-methyl-7-(1,1,1-trifluoro-2-hydroxybutan-2-yl)-2H-indazol-4-yl)benzyl)-6,7-dihydro-5H-pyrrolo[3,4-b]pyridin-5-one] | 71% | 4470 nM | – | – | inactive |

The next compounds have a lower EC50 [1] than those just listed; values first:

| Emax [1] | EC50 [1] | EC50 [2] | Emax [2] | Agonist Activity Human M1 EC50 [2] | Compound |
| --- | --- | --- | --- | --- | --- |
| 67% | 396 nM | ≥ 10000 nM | 16% | – | Cn1cc2c(-c3ccc(CN4Cc5ncccc5C4=O)cc3)ccc(C(C)(C)O)c2n1 [Compound 59, 6-(4-(7-(2-hydroxypropan-2-yl)-2-methyl-2H-indazol-4-yl)benzyl)-6,7-dihydro-5H-pyrrolo[3,4-b]pyridin-5-one] |
| 68% | 163 nM | – | – | inactive | COc1cc(-c2ccc(C(C)(C)O)c3nn(C)cc23)cc(F)c1CN1Cc2ncccc2C1=O [Compound 60, 6-(2-fluoro-4-(7-(2-hydroxypropan-2-yl)-2-methyl-2H-indazol-4-yl)-6-methoxybenzyl)-6,7-dihydro-5H-pyrrolo[3,4-b]pyridin-5-one] |
| 70% | 103 nM | 4610 nM | 18% | – | Cn1cc2c(-c3cc(F)c(CN4Cc5ncccc5C4=O)c(Cl)c3)ccc(C(C)(C)O)c2n1 [Compound 61, 6-(2-chloro-6-fluoro-4-(7-(2-hydroxypropan-2-yl)-2-methyl-2H-indazol-4-yl)benzyl)-6,7-dihydro-5H-pyrrolo[3,4-b]pyridin-5-one] |
| 73% | 180 nM | ≥ 10000 nM | 30% | – | Cn1cc2c(-c3cc(F)c(CN4Cc5ncccc5C4=O)cc3F)ccc(C(C)(C)O)c2n1 [Compound 62, 6-(2,5-difluoro-4-(7-(2-hydroxypropan-2-yl)-2-methyl-2H-indazol-4-yl)benzyl)-6,7-dihydro-5H-pyrrolo[3,4-b]pyridin-5-one] |
| 64% | 445 nM | – | – | inactive | Cn1cc2c(-c3ccc(CN4Cc5ncccc5C4=O)c(F)c3F)ccc(C(C)(C)O)c2n1 [Compound 63, 6-(2,3-difluoro-4-(7-(2-hydroxypropan-2-yl)-2-methyl-2H-indazol-4-yl)benzyl)-6,7-dihydro-5H-pyrrolo[3,4-b]pyridin-5-one] |
| 63% | 145 nM | 6330 nM | 15% | – | Cn1cc2c(-c3cc(Cl)c(CN4Cc5ncccc5C4=O)c(Cl)c3)ccc(C(C)(C)O)c2n1 [Compound 64, 6-(2,6-dichloro-4-(7-(2-hydroxypropan-2-yl)-2-methyl-2H-indazol-4-yl)benzyl)-6,7-dihydro-5H-pyrrolo[3,4-b]pyridin-5-one] |
| 65% | 135 nM | ≥ 10000 nM | 28% | – | Cc1cc(-c2ccc(C(C)(C)O)c3nn(C)cc23)cc(Cl)c1CN1Cc2ncccc2C1=O [Compound 65, 6-(2-chloro-4-(7-(2-hydroxypropan-2-yl)-2-methyl-2H-indazol-4-yl)-6-methylbenzyl)-6,7-dihydro-5H-pyrrolo[3,4-b]pyridin-5-one] |
| 62% | 147 nM | 6100 nM | 32% | – | Cn1cc2c(-c3cc(Cl)c(CN4Cc5ncccc5C4=O)c(C4CC4)c3)ccc(C(C)(C)O)c2n1 [Compound 67, 6-(2-chloro-6-cyclopropyl-4-(7-(2-hydroxypropan-2-yl)-2-methyl-2H-indazol-4-yl)benzyl)-6,7-dihydro-5H-pyrrolo[3,4-b]pyridin-5-one] |
| 80% | 439 nM | – | – | inactive | Cn1cc2c(-c3cc(F)c(CN4Cc5ncccc5C4=O)c(C(F)(F)F)c3)ccc(C(C)(C)O)c2n1 [Compound 76, 6-(2-fluoro-4-(7-(2-hydroxypropan-2-yl)-2-methyl-2H-indazol-4-yl)-6-(trifluoromethyl)benzyl)-6,7-dihydro-5H-pyrrolo[3,4-b]pyridin-5-one] |
| 83% | 373 nM | – | – | inactive | Cn1cc2c(-c3cc(F)c(CN4Cc5ncccc5C4=O)c(F)c3)ccc(C(C)(O)C3CC3)c2n1 (stereo not drawn) [Compound 80, 6-(4-(7-(1-cyclopropyl-1-hydroxyethyl)-2-methyl-2H-indazol-4-yl)-2,6-difluorobenzyl)-6,7-dihydro-5H-pyrrolo[3,4-b]pyridin-5-one] |

Reference: patent US20260138978A1, “POSITIVE ALLOSTERIC MODULATORS OF THE MUSCARINIC ACETYLCHOLINE RECEPTOR M1” (Vanderbilt University, priority 2022, published 2026)
